Columns and labels:
Assay type in all cases: in vivo
[1] = test system: redroot pigweed (Amaranthus retroflexus, AMR); test: Pre-emerge test, redroot pigweed; settings: 250 g ai/ha, 14 days after application, rating scale 0-100 (0 no damage, 100 complete death)
Method in brief: (§1)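 Using a track sprayer with flat fan nozzle, acetone solutions were applied at 8–1000 g ai/ha to sandy loam pots sown one day before. Plant injury was rated visually 0–100 after 14 days.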

[2] = test system: velvetleaf (Abutilon theophrasti, ABT); test: Pre-emerge test, velvetleaf; settings: 250 g ai/ha, 14 days after application, rating scale 0-100 (0 no damage, 100 complete death)
Method in brief: as §1

[3] = test system: sicklepod (Cassia obtusifolia, CAO); test: Pre-emerge test, sicklepod; settings: 250 g ai/ha, 14 days after application, rating scale 0-100 (0 no damage, 100 complete death)
Method in brief: as §1

[4] = test system: ivyleaf morningglory (Ipomoea hederacea, IPH); test: Pre-emerge test, ivyleaf morningglory; settings: 250 g ai/ha, 14 days after application, rating scale 0-100 (0 no damage, 100 complete death)
Method in brief: as §1

[5] = test system: lambsquarters (Chenopodium album, CHA); test: Pre-emerge test, lambsquarters; settings: 250 g ai/ha, 14 days after application, rating scale 0-100 (0 no damage, 100 complete death)
Method in brief: as §1

[6] = test system: common ragweed (Ambrosia artemisiifolia L., AML); test: Pre-emerge test, common ragweed; settings: 250 g ai/ha, 14 days after application, rating scale 0-100 (0 no damage, 100 complete death)
Method in brief: as §1

[7] = test system: cocklebur (Xanthium strumariunt, XAS); test: Pre-emerge test, cocklebur; settings: 250 g ai/ha, 14 days after application, rating scale 0-100 (0 no damage, 100 complete death)
Method in brief: as §1

[8] = test system: green foxtail (Setaria viridis, SEV); test: Pre-emerge test, green foxtail; settings: 250 g ai/ha, 14 days after application, rating scale 0-100 (0 no damage, 100 complete death)
Method in brief: as §1

[9] = test system: barnyardgrass (Echinachloa crus-galli, ECC); test: Pre-emerge test, barnyardgrass; settings: 250 g ai/ha, 14 days after application, rating scale 0-100 (0 no damage, 100 complete death)
Method in brief: as §1

[10] = test system: johnsongrass (Sorghum halepense, SOH); test: Pre-emerge test, johnsongrass; settings: 250 g ai/ha, 14 days after application, rating scale 0-100 (0 no damage, 100 complete death)
Method in brief: as §1

[11] = test system: large crabgrass (Digitaria sanguinalis, DIS); test: Pre-emerge test, large crabgrass; settings: 250 g ai/ha, 14 days after application, rating scale 0-100 (0 no damage, 100 complete death)
Method in brief: as §1

[12] = test system: field corn (Zea mays L., var. Dekalb 535, CORN); test: Pre-emerge test, crop damage field corn
Method in brief: (§2)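 Compounds are applied in acetone to freshly sown soil (planted one day earlier) at 8 g ai/ha up to 1000 g ai/ha via track sprayer. Plants are assessed at 14 days on a 0–100 injury scale.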

[13] = test system: soybean (Glycine max L., var. Pella 86, SOY); test: Pre-emerge test, crop damage soybean
Method in brief: as §2

[14] = test system: upland rice (Oryza sp., var.Tebonnet, RICE); test: Pre-emerge test, crop damage upland rice
Method in brief: as §2

[15] = test system: wheat (Triticum aestivum); test: Pre-emerge test, crop damage wheat
Method in brief: as §2

[16] = test system: redroot pigweed (Amaranthus retroflexus, AMR); test: Post-emerge test, redroot pigweed; settings: 250 g ai/ha, 14 days after application, rating scale 0-100 (0 no damage, 100 complete death)
Method in brief: (§3)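 Scores use a 0-100 visual scale, where 100 is complete plant death, rated 14 days post-treatment. Foliar application at 8-1000 g ai/ha, acetone solution at 187 l/ha with 0.25% v/v non-ionic surfactant. Plants grown 8-21 days, typically 2-3 leaf stage.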

[17] = test system: velvetleaf (Abutilon theophrasti, ABT); test: Post-emerge test, velvetleaf; settings: 250 g ai/ha, 14 days after application, rating scale 0-100 (0 no damage, 100 complete death)
Method in brief: as §3

[18] = test system: sicklepod (Cassia obtusifolia, CAO); test: Post-emerge test, sicklepod; settings: 250 g ai/ha, 14 days after application, rating scale 0-100 (0 no damage, 100 complete death)
Method in brief: as §3

[19] = test system: ivyleaf morningglory (Ipomoea hederacea, IPH); test: Post-emerge test, ivyleaf morningglory; settings: 250 g ai/ha, 14 days after application, rating scale 0-100 (0 no damage, 100 complete death)
Method in brief: as §3

[20] = test system: lambsquarters (Chenopodium album, CHA); test: Post-emerge test, lambsquarters; settings: 250 g ai/ha, 14 days after application, rating scale 0-100 (0 no damage, 100 complete death)
Method in brief: as §3

[21] = test system: common ragweed (Ambrosia artemisiifolia L., AML); test: Post-emerge test, common ragweed; settings: 250 g ai/ha, 14 days after application, rating scale 0-100 (0 no damage, 100 complete death)
Method in brief: as §3

[22] = test system: cocklebur (Xanthium strumariunt, XAS); test: Post-emerge test, cocklebur; settings: 250 g ai/ha, 14 days after application, rating scale 0-100 (0 no damage, 100 complete death)
Method in brief: as §3

[23] = test system: green foxtail (Setaria viridis, SEV); test: Post-emerge test, green foxtail; settings: 250 g ai/ha, 14 days after application, rating scale 0-100 (0 no damage, 100 complete death)
Method in brief: as §3

[24] = test system: barnyardgrass (Echinachloa crus-galli, ECC); test: Post-emerge test, barnyardgrass; settings: 250 g ai/ha, 14 days after application, rating scale 0-100 (0 no damage, 100 complete death)
Method in brief: as §3

[25] = test system: johnsongrass (Sorghum halepense, SOH); test: Post-emerge test, johnsongrass; settings: 250 g ai/ha, 14 days after application, rating scale 0-100 (0 no damage, 100 complete death)
Method in brief: as §3

[26] = test system: large crabgrass (Digitaria sanguinalis, DIS); test: Post-emerge test, large crabgrass; settings: 250 g ai/ha, 14 days after application, rating scale 0-100 (0 no damage, 100 complete death)
Method in brief: as §3

[27] = test system: field corn (Zea mays L., var. Dekalb 535, CORN); test: Post-emerge test, crop damage field corn
Method in brief: as §3

[28] = test system: soybean (Glycine max L., var. Pella 86, SOY); test: Post-emerge test, crop damage soybean
Method in brief: as §3

[29] = test system: upland rice (Oryza sp., var.Tebonnet, RICE); test: Post-emerge test, crop damage upland rice
Method in brief: as §3

[30] = test system: wheat (Triticum aestivum); test: Post-emerge test, crop damage wheat
Method in brief: as §3

[31] = pre-emerge, 250 g ai/ha, 14 days after application, rating scale 0-100 (0 no damage, 100 complete death)
[32] = post-emerge, 250 g ai/ha, 14 days after application, rating scale 0-100 (0 no damage, 100 complete death)
[33] = var. Dekalb 535, Zea mays (field corn), in vivo, 14 days
[34] = var. Pella 86, Glycine max (soybean), in vivo, 14 days
[35] = var. Tebonnet, Oryza sp. (upland rice), in vivo, 14 days
[36] = Triticum aestivum (wheat), in vivo, 14 days

| SMILES | Pre-emerge Herbicidal Activity AMR (phytotoxicity rating) [1] | Pre-emerge Herbicidal Activity ABT (phytotoxicity rating) [2] | Pre-emerge Herbicidal Activity CAO (phytotoxicity rating) [3] | Pre-emerge Herbicidal Activity IPH (phytotoxicity rating) [4] | Pre-emerge Herbicidal Activity CHA (phytotoxicity rating) [5] | Pre-emerge Herbicidal Activity AML (phytotoxicity rating) [6] | Pre-emerge Herbicidal Activity XAS (phytotoxicity rating) [7] | Pre-emerge Herbicidal Activity SEV (phytotoxicity rating) [8] | Pre-emerge Herbicidal Activity ECC (phytotoxicity rating) [9] | Pre-emerge Herbicidal Activity SOH (phytotoxicity rating) [10] | Pre-emerge Herbicidal Activity DIS (phytotoxicity rating) [11] | Post-emerge Herbicidal Activity AMR (phytotoxicity rating) [16] | Post-emerge Herbicidal Activity ABT (phytotoxicity rating) [17] | Post-emerge Herbicidal Activity CAO (phytotoxicity rating) [18] | Post-emerge Herbicidal Activity IPH (phytotoxicity rating) [19] | Post-emerge Herbicidal Activity CHA (phytotoxicity rating) [20] | Post-emerge Herbicidal Activity AML (phytotoxicity rating) [21] | Post-emerge Herbicidal Activity XAS (phytotoxicity rating) [22] | Post-emerge Herbicidal Activity SEV (phytotoxicity rating) [23] | Post-emerge Herbicidal Activity ECC (phytotoxicity rating) [24] | other results |
| --- | --- | --- | --- | --- | --- | --- | --- | --- | --- | --- | --- | --- | --- | --- | --- | --- | --- | --- | --- | --- | --- |
| Cn1nc(-c2c(F)cc3c4c2NC(=O)C(c2ccccc2)N4C(=O)CO3)c(Cl)c1OC(F)F (stereo not drawn) [1-33] | 100 | 100 | 65 | 70 | 100 | 100 | 75 | 99 | 55 | 70 | 100 | 99 | 100 | 60 | 98 | 99 | 70 | 70 | 95 | 65 | Pre-emerge crop damage CORN (phytotoxicity rating) [12, 31]: 0; Pre-emerge crop damage SOY (phytotoxicity rating) [13, 31]: 15; Pre-emerge crop damage RICE (phytotoxicity rating) [14, 31]: 10; Pre-emerge crop damage WHEAT (phytotoxicity rating) [15, 31]: 10; Post-emerge Herbicidal Activity SOH (phytotoxicity rating) [25]: 65; Post-emerge Herbicidal Activity DIS (phytotoxicity rating) [26]: 25; Post-emerge crop damage CORN (phytotoxicity rating) [27, 32]: 25; Post-emerge crop damage SOY (phytotoxicity rating) [28, 32]: 60; Post-emerge crop damage RICE (phytotoxicity rating) [29, 32]: 95; Post-emerge crop damage WHEAT (phytotoxicity rating) [30, 32]: 65 |
| Cn1nc(-c2c(F)cc3c4c2NC(=O)CN4C(=O)CO3)c(Cl)c1C(F)(F)F [1-13, 8-[4-Chloro-1-methyl-5-(trifluoromethyl)-1H-pyrazol-3-yl]-9-fluoro-5H-pyrazino[1,2,3-de]-1,4-benzoxazine-3,6(2H, 7H)-dione] | 100 | 100 | 100 | 100 | 100 | 100 | 80 | 100 | 100 | 100 | 100 | 100 | 100 | 100 | 100 | 100 | 100 | 100 | 100 | 99 | Pre-emerge crop damage CORN (phytotoxicity rating) [12, 33]: 90; Pre-emerge crop damage SOY (phytotoxicity rating) [13, 34]: 50; Pre-emerge crop damage RICE (phytotoxicity rating) [14, 35]: 90; Pre-emerge crop damage WHEAT (phytotoxicity rating) [15, 36]: 65; Post-emerge Herbicidal Activity SOH (phytotoxicity rating) [25]: 100; Post-emerge Herbicidal Activity DIS (phytotoxicity rating) [26]: 55; Post-emerge crop damage CORN (phytotoxicity rating) [27, 33]: 25; Post-emerge crop damage SOY (phytotoxicity rating) [28, 34]: 100; Post-emerge crop damage RICE (phytotoxicity rating) [29, 35]: 99; Post-emerge crop damage WHEAT (phytotoxicity rating) [30, 36]: 25 |
| CC1Oc2cc(F)c(-c3nn(C)c(OC(F)F)c3Cl)c3c2N(C1=O)C(C)C(=O)N3 (mixture of isomers) [1-57] | 100 | 100 | 100 | 100 | 100 | 100 | 95 | 100 | 100 | 100 | 100 | 100 | 100 | 100 | 100 | 100 | 80 | 100 | 99 | 80 | Pre-emerge crop damage CORN (phytotoxicity rating) [12, 31]: 50; Pre-emerge crop damage SOY (phytotoxicity rating) [13, 31]: 50; Pre-emerge crop damage RICE (phytotoxicity rating) [14, 31]: 65; Pre-emerge crop damage WHEAT (phytotoxicity rating) [15, 31]: 35; Post-emerge Herbicidal Activity SOH (phytotoxicity rating) [25]: 40; Post-emerge Herbicidal Activity DIS (phytotoxicity rating) [26]: 10; Post-emerge crop damage CORN (phytotoxicity rating) [27, 32]: 10; Post-emerge crop damage SOY (phytotoxicity rating) [28, 32]: 100; Post-emerge crop damage RICE (phytotoxicity rating) [29, 32]: 65; Post-emerge crop damage WHEAT (phytotoxicity rating) [30, 32]: 50 |
